According to publication PMC9127807, “Echinocandins Localized to the Target-Harboring Cell Surface Are Not Degraded but Those Entering the Vacuole Are” (ACS Chemical Biology, 2022):
≈ marks a conversion by molar mass, not a printed value. Where “and” joins values, the source holds several entries; their conditions need not be identical. Equal values may be shown once. Read-outs that look alike come from different tables or passages of the source. Starred links: 1 amine or outer side, 2 acyl side, 3 side chain; linkers in the order of their positions; H or OH if unused. Positions of bridges follow the written chain, without caps; N, C: chain ends. Non-standard residues stand in square brackets, D forms with d. Residues, ends and D or L forms follow the SMILES beside them. *: point of attachment. Orn(4R-OH,5R-OCH2CH2NMe3+) = C[N+](C)(C)CCO[C@@H](N[*:3])[C@H](O)C[C@H](N[*:1])C(=O)[*:2]; pTerphenylCO(4''-OnC5H11) = CCCCCOc1ccc(-c2ccc(-c3ccc(C(=O)*)cc3)cc2)cc1; hTyr(3S-OH,4S-OH) = N[C@H](C(=O)O)[C@H](O)[C@@H](O)c1ccc(O)cc1; Pro(3S-OH,4S-Me) = C[C@H]1CN[C@H](C(=O)O)[C@H]1O; Hyp = O=C(O)[C@@H]1C[C@@H](O)CN1

Experiments:
C. albicans SN152 = assay: MIC broth double-dilution assay; assay type: cell-based, Candida albicans; conditions: strain B, echinocandin-susceptible; YPAD broth, 24 h, 30 °C, OD600 reduced by ≥75%
Protocol: (§1) Colonies were suspended in 1 mL of PBS and diluted to an optical density of 2 × 10^–4 at 600 nm (OD600) in flat-bottom 96-well microplates (Corning) with YPAD broth containing dilutions of each tested compound at concentrations ranging from 64 to 0.008 μg/mL in twofold dilutions. Control wells with yeast cells but no drug and blank wells that contained only YPAD were prepared. MIC values (Table S2) were determined after 24 h at 30 °C by measuring the OD600 using a plate reader (Infinite M200 PRO, Tecan). MIC values were defined as the point at which the OD600 was reduced by ≥75% compared to the no-drug wells. Each concentration was tested in triplicate, and the results were confirmed by two independent sets of experiments.

C. glabrata ATCC 2001 = conditions: strain I, echinocandin-susceptible; YPAD broth, 24 h, 30 °C, OD600 reduced by ≥75%
Protocol: as §1, with “Candida strains were streaked from glycerol stock onto YPAD agar plates and grown for 24 h at 30 °C. Colonies” for “Colonies”

C. glabrata TGL00277 = conditions: strain N, echinocandin resistant FKS mutation; YPAD broth, 24 h, 30 °C, OD600 reduced by ≥75%
Protocol: as §1, with “Candida strains were streaked from glycerol stock onto YPAD agar plates and grown for 24 h at 30 °C. Colonies” for “Colonies”

[1] = tested on: C. albicans DPL1016 (DP-A15-10); conditions: strain F, echinocandin resistant FKS mutation; YPAD broth, 24 h, 30 °C, OD600 reduced by ≥75%
Protocol: as §1, with “Candida strains were streaked from glycerol stock onto YPAD agar plates and grown for 24 h at 30 °C. Colonies” for “Colonies”

C. albicans SC5314 = conditions: strain A, echinocandin-susceptible; YPAD broth, 24 h, 30 °C, OD600 reduced by ≥75%; triplicate, two independent experiments
Protocol: as §1, with “Candida strains were streaked from glycerol stock onto YPAD agar plates and grown for 24 h at 30 °C. Colonies” for “Colonies”

C. albicans ATCC 10231 = conditions: strain D, echinocandin-susceptible; YPAD broth, 24 h, 30 °C, OD600 reduced by ≥75%
Protocol: as §1, with “Candida strains were streaked from glycerol stock onto YPAD agar plates and grown for 24 h at 30 °C. Colonies” for “Colonies”

[2] = tested on: C. albicans T-2068 (DP-C42); conditions: strain G, echinocandin resistant FKS mutation; YPAD broth, 24 h, 30 °C, OD600 reduced by ≥75%
Protocol: as §1, with “Candida strains were streaked from glycerol stock onto YPAD agar plates and grown for 24 h at 30 °C. Colonies” for “Colonies”

C. glabrata ATCC 90030 = conditions: strain K, echinocandin-susceptible; YPAD broth, 24 h, 30 °C, OD600 reduced by ≥75%
Protocol: as §1, with “Candida strains were streaked from glycerol stock onto YPAD agar plates and grown for 24 h at 30 °C. Colonies” for “Colonies”

C. glabrata TGL00275 = conditions: strain M, echinocandin resistant FKS mutation; YPAD broth, 24 h, 30 °C, OD600 reduced by ≥75%
Protocol: as §1, with “Candida strains were streaked from glycerol stock onto YPAD agar plates and grown for 24 h at 30 °C. Colonies” for “Colonies”

C. glabrata EF1620 = conditions: strain H, echinocandin-susceptible; YPAD broth, 24 h, 30 °C, OD600 reduced by ≥75%
Protocol: as §1, with “Candida strains were streaked from glycerol stock onto YPAD agar plates and grown for 24 h at 30 °C. Colonies” for “Colonies”

C. albicans ATCC 24433 = conditions: strain C, echinocandin-susceptible; YPAD broth, 24 h, 30 °C, OD600 reduced by ≥75%
Protocol: as §1, with “Candida strains were streaked from glycerol stock onto YPAD agar plates and grown for 24 h at 30 °C. Colonies” for “Colonies”

C. glabrata ATCC 66032 = conditions: strain J, echinocandin-susceptible; YPAD broth, 24 h, 30 °C, OD600 reduced by ≥75%
Protocol: as §1, with “Candida strains were streaked from glycerol stock onto YPAD agar plates and grown for 24 h at 30 °C. Colonies” for “Colonies”

C. glabrata T-192 (1775) = conditions: strain L, echinocandin-susceptible; YPAD broth, 24 h, 30 °C, OD600 reduced by ≥75%
Protocol: as §1, with “Candida strains were streaked from glycerol stock onto YPAD agar plates and grown for 24 h at 30 °C. Colonies” for “Colonies”

C. albicans ATCC 90028 = conditions: strain E, echinocandin-susceptible; YPAD broth, 24 h, 30 °C, OD600 reduced by ≥75%
Protocol: as §1, with “Candida strains were streaked from glycerol stock onto YPAD agar plates and grown for 24 h at 30 °C. Colonies” for “Colonies”

C. albicans SC5314 cells = conditions: for percentage degraded: 24 h, 10 μM, 30 °C, RP-HPLC of lysates
Protocol: C. albicans SC5314 cells were streaked from glycerol stocks onto YPAD agar plates and grown for 24 h at 30 °C. Colonies were grown in tubes in 3 mL of YPAD broth for 24 h at 30 °C with shaking. Cultures were diluted 1:50 and incubated in 5 mL of YPAD broth for 3 h at 30 °C with shaking until log-phase growth was observed. Cultures were then centrifuged (4000 rpm, 3 min), washed with PBS buffer, and resuspended in 1 mL of PBS buffer or YPAD. Cells were incubated with TMR-based probes (1 or 3) at a final concentration of 10 μM at 30 °C with shaking in the dark for 24 h. After washing three times with PBS, cells were resuspended in 75 μL of TNE buffer (10 mM Tris, 100 mM NaCl, and 1 mM ethylenediaminetetraacetic acid, pH 8.0) in a 1.5 mL Eppendorf tube, and 0.5 mm diameter beads were added to the yeast solution. The mixture was agitated on a vortex at maximum speed for 5 min. Next, 200 μL of 2% Triton X-100 in TNE buffer (v/v) was added to the agitated solution, and then the mixture was sonicated for 15 min. To clarify the yeast lysate, the mixture was centrifuged twice (16 000g, 20 min), and the supernatant was removed and filtered using a 0.22 μm syringe filter. The samples were analyzed using analytical reverse-phase HPLC at a 550 nm wavelength. HPLC conditions: mobile phase: acetonitrile in H2O (containing 0.1% trifluoroacetic acid (v/v)), gradient from 10 to 90%; flow rate: 1 mL/min; absorbance wavelength: 550 nm. Each sample was tested in two independent sets of experiments. The percentages of intact echinocandin were determined using the area calculation function available in the Hitachi Primaide Software and are presented as means (two replicates) ± standard deviation (SD).

[3] = tested on: C. albicans SC5314 cell lysate; conditions: incubated with lysate of C. albicans SC5314 in buffer for 24 h; RP-HPLC
Protocol: C. albicans SC5314 cells were streaked from glycerol stocks onto YPAD agar plates and grown for 24 h at 30 °C. Colonies were grown in tubes in 3 mL of YPAD broth for 24 h at 30 °C with shaking. Cultures were diluted 1:50 and incubated in 5 mL of YPAD broth for 3 h at 30 °C with shaking until log-phase growth was observed. Cultures were then centrifuged (4000 rpm, 3 min), washed with PBS buffer, and resuspended in 1 mL of PBS buffer or YPAD. Cells were incubated with TMR-based probes (1 or 3) at a final concentration of 10 μM at 30 °C with shaking in the dark for 24 h. After washing three times with PBS, cells were resuspended in 75 μL of TNE buffer (10 mM Tris, 100 mM NaCl, and 1 mM ethylenediaminetetraacetic acid, pH 8.0) in a 1.5 mL Eppendorf tube, and 0.5 mm diameter beads were added to the yeast solution. The mixture was agitated on a vortex at maximum speed for 5 min. […] The samples were analyzed using analytical reverse-phase HPLC at a 550 nm wavelength. HPLC conditions: mobile phase: acetonitrile in H2O (containing 0.1% trifluoroacetic acid (v/v)), gradient from 10 to 90%; flow rate: 1 mL/min; absorbance wavelength: 550 nm. […] The percentages of intact echinocandin were determined using the area calculation function available in the Hitachi Primaide Software and are presented as means (two replicates) ± standard deviation (SD).

[4] = incubation in human plasma for 44 h at 37 °C; cited from earlier work
Description: Intending to develop echinocandins with improved chemical stability under physiological conditions, Cidara Therapeutics developed rezafungin (RZF), a novel ANF derivative with distinctive pharmacokinetic and pharmacodynamic profiles, which entered phase III trials in October 2018 (Figure 1).[18]−[21] […] Instead of the daily intravenous administration regime used for the other three echinocandins, RZF can be administered intravenous ...

Row | SMILES | MIC (C. albicans SN152) [µg/mL] | MIC (C. glabrata ATCC 2001) [µg/mL] | MIC (C. glabrata TGL00277) [µg/mL] | MIC [1] [µg/mL] | MIC (C. albicans SC5314) [µg/mL] | MIC (C. albicans ATCC 10231) [µg/mL] | MIC [2] [µg/mL] | MIC (C. glabrata ATCC 90030) [µg/mL] | MIC (C. glabrata TGL00275) [µg/mL] | MIC (C. glabrata EF1620) [µg/mL] | MIC (C. albicans ATCC 24433) [µg/mL] | MIC (C. glabrata ATCC 66032) [µg/mL] | MIC (C. glabrata T-192 (1775)) [µg/mL] | MIC (C. albicans ATCC 90028) [µg/mL] | percentage degraded (C. albicans SC5314 cells; cells in nutrient-free PBS buffer) | percentage degraded (C. albicans SC5314 cells; cells in nutrient-rich YPAD medium) | percentage intact (C. albicans SC5314 cells; control: 5 min incubation with the cells in PBS, RP-HPLC) [%] | percentage intact [3] | percent of intact drug [4] [%]
1 | CC[C@H](C)C[C@H](C)CCCCCCCCC(=O)N[C@H]1C[C@@H](O)[C@@H](NCCN)NC(=O)[C@@H]2[C@@H](O)CCN2C(=O)[C@H]([C@H](O)CCN)NC(=O)[C@H]([C@H](O)[C@@H](O)c2ccc(OCc3cn(CCCNc4ccc([N+](=O)[O-])c5nonc45)nn3)cc2)NC(=O)[C@@H]2C[C@@H](O)CN2C(=O)[C@H]([C@@H](C)O)NC1=O [Probe 2] | 1 (≈ 0.717 µM) | 2 (≈ 1.43 µM) | > 64 | > 64 | 1 (≈ 0.717 µM) | 2 (≈ 1.43 µM) | 64 (≈ 45.9 µM) | 4 (≈ 2.87 µM) | > 64 | 4 (≈ 2.87 µM) | 2 (≈ 1.43 µM) | 4 (≈ 2.87 µM) | 2 (≈ 1.43 µM) | 2 (≈ 1.43 µM) |  |  |  |  | 
2 | CCCCCOc1ccc(-c2ccc(-c3ccc(C(=O)N[C@H]4C[C@@H](O)[C@@H](OCCc5cn(CCCNc6ccc([N+](=O)[O-])c7nonc67)nn5)NC(=O)[C@@H]5[C@@H](O)[C@@H](C)CN5C(=O)[C@H]([C@@H](C)O)NC(=O)[C@H]([C@H](O)[C@@H](O)c5ccc(O)cc5)NC(=O)[C@@H]5C[C@@H](O)CN5C(=O)[C@H]([C@@H](C)O)NC4=O)cc3)cc2)cc1 [Probe 4] | 0.25 (≈ 0.172 µM) | 0.5 (≈ 0.344 µM) | > 64 | > 64 | 0.25 (≈ 0.172 µM) | 0.25 (≈ 0.172 µM) | > 64 | 0.5 (≈ 0.344 µM) | > 64 | 0.5 (≈ 0.344 µM) | 0.25 (≈ 0.172 µM) | 0.5 (≈ 0.344 µM) | 0.25 (≈ 0.172 µM) | 0.5 (≈ 0.344 µM) |  |  |  |  | 
3 | CC[C@H](C)C[C@H](C)CCCCCCCCC(=O)N[C@H]1C[C@@H](O)[C@@H](NCCN)NC(=O)[C@@H]2[C@@H](O)CCN2C(=O)[C@H]([C@H](O)CCN)NC(=O)[C@H]([C@H](O)[C@@H](O)c2ccc(OCc3cn(CCCNC(=O)c4ccc(-c5c6ccc(=[N+](C)C)cc-6oc6cc(N(C)C)ccc56)c(C(=O)[O-])c4)nn3)cc2)NC(=O)[C@@H]2C[C@@H](O)CN2C(=O)[C@H]([C@@H](C)O)NC1=O [Probe 1] |  |  |  |  |  |  |  |  |  |  |  |  |  |  | approximately 70% | approximately 40% | ~80 | 78% and ~80% | 
4 | CCCCCOc1ccc(-c2ccc(-c3ccc(C(=O)N[C@H]4C[C@@H](O)[C@@H](OCC[N+](C)(C)C)NC(=O)[C@@H]5[C@@H](O)[C@@H](C)CN5C(=O)[C@H]([C@@H](C)O)NC(=O)[C@H]([C@H](O)[C@@H](O)c5ccc(O)cc5)NC(=O)[C@@H]5C[C@@H](O)CN5C(=O)[C@H]([C@@H](C)O)NC4=O)cc3)cc2)cc1 [RZF, rezafungin, reference compound] ({pTerphenylCO(4''-OnC5H11)}-[Orn(4R-OH,5R-OCH2CH2NMe3+)]T[Hyp][hTyr(3S-OH,4S-OH)]T[Pro(3S-OH,4S-Me)]; lactam 1-C) | 0.031 | 0.063 | > 64 | 8 | 0.016 | 0.063 | 4 | 0.031 | 8 | 0.016 | 0.031 | 0.031 | 0.016 | 0.031 |  |  |  |  | 91
